Columns and labels:
[1] = test system: Italian ryegrass (Lolium multiflorum); assay: Test A preemergence, visual plant response rating; assay type: in vivo
How it was run: (§1)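 Preemergence: seeds in loam/sand blend given directed soil spray of compound in non-phytotoxic solvent with surfactant. Postemergence: plants 2–10 cm, one- to two-leaf stage, sprayed with same formulation. Visual injury rated vs untreated controls after ~10 days in greenhouse, 0 (no effect) to 100 (complete control).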

[2] = test system: barnyardgrass (Echinochloa crus-galli); assay: Test A preemergence, visual plant response rating; assay type: in vivo
How it was run: as §1

kochia (Kochia scoparia) [3] = assay: Test A preemergence, visual plant response rating; assay type: in vivo
How it was run: as §1

[4] = test system: foxtail, giant (giant foxtail, Setaria faberii); assay: Test A preemergence, visual plant response rating; assay type: in vivo
How it was run: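 Greenhouse pot test in loam–sand soil mix: compound in a surfactant-containing non-phytotoxic solvent applied preemergence (directed soil spray) or postemergence (one- to two-leaf plants, 2–10 cm). Injury scored visually after ~10 days, 0–100.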

[5] = test system: pigweed (Amaranthus retroflexus); assay: Test A preemergence, visual plant response rating; assay type: in vivo
How it was run: as §1

[6] = test system: ducksalad (Heteranhera limosa); assay: Test B flooded paddy test, visual plant response rating; assay type: in vivo; settings: 250 g ai/ha, Flood, applied to paddy water, 2-leaf stage, evaluated after 13 to 15 days
How it was run: (§2)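 Seedlings at 2 leaves; compound into paddy water (3 cm flood, maintained); 13–15 d greenhouse; visual score relative to controls.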

rice (Oryza sativa) = assay: as above; assay type: in vivo; settings: 250 g ai/ha, Flood, applied to paddy water, 2-leaf stage, evaluated after 13 to 15 days
How it was run: as §2

[7] = test system: barnyardgrass (Echinochloa crus-galli); assay: as above; assay type: in vivo; settings: 250 g ai/ha, Flood, applied to paddy water, 2-leaf stage, evaluated after 13 to 15 days
How it was run: as §2

[8] = test system: sedge, umbrella (small-flower umbrella sedge, Cyperus difformis); assay: as above; assay type: in vivo; settings: 250 g ai/ha, Flood, applied to paddy water, 2-leaf stage, evaluated after 13 to 15 days
How it was run: as §2

[9] = test system: Italian ryegrass (Lolium multiflorum); assay: Test A postemergence, visual plant response rating; assay type: in vivo
How it was run: as §1

corn (Zea mays) = assay: Test A postemergence, visual plant response rating; assay type: in vivo
How it was run: as §1

[10] = test system: galium (catchweed bedstraw, Galium aparine); assay: Test A postemergence, visual plant response rating; assay type: in vivo
How it was run: as §1

[11] = test system: ragweed (common ragweed, Ambrosia elatior); assay: Test A postemergence, visual plant response rating; assay type: in vivo
How it was run: as §1

[12] = test system: blackgrass (Alopecurus myosuroides); assay: Test A postemergence, visual plant response rating; assay type: in vivo
How it was run: as §1

[13] = test system: barnyardgrass (Echinochloa crus-galli); assay: Test A postemergence, visual plant response rating; assay type: in vivo
How it was run: as §1

kochia (Kochia scoparia) [14] = assay: Test A postemergence, visual plant response rating; assay type: in vivo
How it was run: as §1

[15] = test system: foxtail, giant (giant foxtail, Setaria faberii); assay: Test A postemergence, visual plant response rating; assay type: in vivo
How it was run: as §1

[16] = test system: wheat (Triticum aestivum); assay: Test A postemergence, visual plant response rating; assay type: in vivo
How it was run: as §1

[17] = test system: pigweed (Amaranthus retroflexus); assay: Test A postemergence, visual plant response rating; assay type: in vivo
How it was run: as §1

[18] = 125 g ai/ha, preemergence, 0 to 100 scale, 0 no effect, 100 complete control
[19] = 500 g ai/ha Preemergence, approx. 10 days
[20] = 500 g ai/ha, postemergence, 0 is no effect, 100 is complete control
[21] = Postemergence, 125 g ai/ha, 0 to 100 scale (0 no effect, 100 complete control)

melting point: 194 to 198 °C
SMILES: CO/N=C(/c1c(O)c(C)nn(C)c1=O)c1cc(Br)cc2ccccc12 [Compound 99, 4-[(E)-(3-bromo-1-naphthalenyl)(methoxyimino)methyl]-5-hydroxy-2,6-dimethyl-3(2H)-pyridazinone]
Ryegrass, Italian plant response rating [1, 18]: 90
Ryegrass, Italian plant response rating (0 to 100 scale) [1, 19]: 100
Barnyardgrass plant response rating [2, 18]: 90
Barnyardgrass plant response rating (0 to 100 scale) [2, 19]: 100
Kochia plant response rating (kochia (Kochia scoparia) [3]; [18]): 70
Kochia plant response rating (0 to 100 scale) (kochia (Kochia scoparia) [3]; [19]): 90
Foxtail, Giant plant response rating [4, 18]: 100
Foxtail, Giant plant response rating (0 to 100 scale) [4, 19]: 100
Pigweed plant response rating [5, 18]: 90
Pigweed plant response rating (0 to 100 scale) [5, 19]: 100
Plant response rating, Ducksalad (0 to 100 scale, 0 is no effect, 100 is complete control) [6]: 70
Plant response rating, Rice (0 to 100 scale, 0 is no effect, 100 is complete control) (rice (Oryza sativa)): 15
Plant response rating, Barnyardgrass (0 to 100 scale, 0 is no effect, 100 is complete control) [7]: 25
Plant response rating, Sedge, Umbrella (0 to 100 scale, 0 is no effect, 100 is complete control) [8]: 70
Ryegrass, Italian plant response rating (0 to 100 scale) [9, 20]: 90
Ryegrass, Italian plant response rating [9, 21]: 90
Corn plant response rating (0 to 100 scale) (corn (Zea mays); [20]): 60
Corn plant response rating (corn (Zea mays); [21]): 30
Galium plant response rating (0 to 100 scale) [10, 20]: 100
Galium plant response rating [10, 21]: 90
Ragweed plant response rating (0 to 100 scale) [11, 20]: 90
Ragweed plant response rating [11, 21]: 90
Blackgrass plant response rating (0 to 100 scale) [12, 20]: 100
Blackgrass plant response rating [12, 21]: 90
Barnyardgrass plant response rating (0 to 100 scale) [13, 20]: 90
Barnyardgrass plant response rating [13, 21]: 80
Kochia plant response rating (0 to 100 scale) (kochia (Kochia scoparia) [14]; [20]): 70
Kochia plant response rating (kochia (Kochia scoparia) [14]; [21]): 50
Foxtail, Giant plant response rating (0 to 100 scale) [15, 20]: 80
Foxtail, Giant plant response rating [15, 21]: 80
Wheat plant response rating (0 to 100 scale) [16, 20]: 80
Wheat plant response rating [16, 21]: 50
Pigweed plant response rating (0 to 100 scale) [17, 20]: 100
Pigweed plant response rating [17, 21]: 60
